Results published in US20230147257A1 (DONG-A ST CO., LTD., priority 2020, published 2023).
Like-named read-outs stand apart in the source and are kept apart here.

Experiments:
Format in all cases: cell-based
[1] = target: T1, AhR (Homo sapiens, UniProt P35869); test: In vitro assay 1: XRE-luciferase reporter assay, antagonism in human cell line (HepG2); conditions: HepG2 XRE-luciferase, 6 hours, read-out: Assay 1: AhR-Luc Human Antagonism (IC50)
T1 construct: host or cells: HepG2
T1 sequence (P35869 11-848): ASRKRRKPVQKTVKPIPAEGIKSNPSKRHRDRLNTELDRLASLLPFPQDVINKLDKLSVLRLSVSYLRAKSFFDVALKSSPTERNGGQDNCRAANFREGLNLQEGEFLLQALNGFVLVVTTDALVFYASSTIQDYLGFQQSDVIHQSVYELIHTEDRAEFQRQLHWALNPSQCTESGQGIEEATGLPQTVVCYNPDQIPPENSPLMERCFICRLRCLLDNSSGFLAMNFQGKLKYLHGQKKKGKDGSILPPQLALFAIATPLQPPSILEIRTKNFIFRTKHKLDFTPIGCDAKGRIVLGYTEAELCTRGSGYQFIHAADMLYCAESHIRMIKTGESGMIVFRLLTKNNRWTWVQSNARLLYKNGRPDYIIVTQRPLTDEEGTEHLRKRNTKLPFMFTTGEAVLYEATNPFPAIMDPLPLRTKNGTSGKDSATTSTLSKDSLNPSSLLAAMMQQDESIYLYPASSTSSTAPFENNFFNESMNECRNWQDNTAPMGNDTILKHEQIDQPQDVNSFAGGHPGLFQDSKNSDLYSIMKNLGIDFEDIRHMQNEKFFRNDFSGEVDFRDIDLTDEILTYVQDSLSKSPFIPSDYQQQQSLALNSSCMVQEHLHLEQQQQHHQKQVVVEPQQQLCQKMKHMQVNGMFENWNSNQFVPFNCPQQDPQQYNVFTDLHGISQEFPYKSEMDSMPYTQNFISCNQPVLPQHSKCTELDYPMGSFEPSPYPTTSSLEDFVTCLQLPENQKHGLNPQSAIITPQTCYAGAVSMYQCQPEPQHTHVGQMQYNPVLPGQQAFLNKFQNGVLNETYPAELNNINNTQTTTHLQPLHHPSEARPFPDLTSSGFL
Procedure, shortened: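 HepG2 cells carrying XRE-firefly luciferase (transient or stable) plus constitutive Nano-Luc control, stimulated 6 h with kynurenine (50 or 200 μM) with or without compound. Firefly/Nano-Luc ratio normalized to kynurenine-alone (maximum) and vehicle (minimum); IC50 by four-parameter nonlinear regression.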

[2] = target: T1, AhR; test: In vitro assay 4: endogenous AhR activity assay (CYP1A1 and CYP1B1 mRNA, qRT-PCR, HepG2 cells); conditions: TCDD 10 nM with compound 123 nM, 4 hours, mRNA relative to β-actin
Description: In Vitro Assay 4: Endogenous AhR Activity Assay
HepG2 cells were seeded in 12-well plate (3×10^5 cells/well). A day after seeding, the cells were treated with TCDD (10 nM) alone or with compounds (123 nM) for 4 hours. Total RNA was extracted using Trizol (Thermo Fisher Scientific). cDNA synthesis and quantitative RT-PCR (qRT-PCR) assays were performed using PrimeScript™ RT Master Mix (TAKARA) and TB Green™ Premix Ex Taq™ II (TAKARA) in accordance with manufacturer's instruction. For the measurement of endogenous AhR activity, relative mRNA levels of CYP1A1 and CYP1B1 were quantitated relative to β(beta)-actin mRNA by the comparative Ct (ΔΔCt) method. The percent inhibitions were calculated according to: […]

[3] = target: T2, AhR (Mus musculus, UniProt P30561); test: In vitro assay 2: XRE-luciferase reporter assay, antagonism in mouse cell line (Hepa1c1c7); conditions: Hepa1c1c7 XRE-Luc, 6 hours
T2 sequence (P30561 1-848): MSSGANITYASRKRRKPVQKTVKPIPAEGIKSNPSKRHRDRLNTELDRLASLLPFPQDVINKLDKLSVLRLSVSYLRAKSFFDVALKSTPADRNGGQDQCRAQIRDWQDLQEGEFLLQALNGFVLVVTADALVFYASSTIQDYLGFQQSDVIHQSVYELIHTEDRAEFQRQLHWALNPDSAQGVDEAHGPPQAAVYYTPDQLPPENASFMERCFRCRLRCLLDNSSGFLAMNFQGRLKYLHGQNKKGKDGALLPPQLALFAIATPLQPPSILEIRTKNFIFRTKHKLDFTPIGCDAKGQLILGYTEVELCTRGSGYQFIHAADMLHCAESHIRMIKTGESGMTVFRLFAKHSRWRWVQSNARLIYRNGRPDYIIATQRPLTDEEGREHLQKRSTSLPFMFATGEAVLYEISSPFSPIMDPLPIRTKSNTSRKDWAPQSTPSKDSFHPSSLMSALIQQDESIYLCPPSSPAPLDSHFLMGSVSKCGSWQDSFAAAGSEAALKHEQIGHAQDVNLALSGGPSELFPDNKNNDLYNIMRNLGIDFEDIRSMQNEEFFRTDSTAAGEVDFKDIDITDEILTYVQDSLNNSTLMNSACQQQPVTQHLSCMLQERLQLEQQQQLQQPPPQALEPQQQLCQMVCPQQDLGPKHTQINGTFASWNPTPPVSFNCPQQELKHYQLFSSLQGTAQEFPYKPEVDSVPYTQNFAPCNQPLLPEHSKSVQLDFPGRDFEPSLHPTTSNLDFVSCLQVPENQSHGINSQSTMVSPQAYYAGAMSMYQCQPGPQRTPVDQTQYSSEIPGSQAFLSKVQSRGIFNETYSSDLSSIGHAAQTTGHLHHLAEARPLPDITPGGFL
Source text: (§1) In Vitro XRE-Luciferase Reporter Assay (In Vitro Assay 1, 2, 3)
(§2) AhR activation leads the induction of target gene expression such as CYP1A1 and CYP1B1 by AhR binding to AhR-responsive DNA elements also known as xenobiotics responsive elements (XRE). The assay for measuring AhR activity herein is the luciferase assay using cell lines transfected with luciferase reporter plasmid containing XREs at the upstream of the reporter gene. Cells transfected with XRE-luciferase reporter (XRE-Luc) plasmid drive luciferase activity reflecting activation and inhibition of AhR in the cells. In addition to transfection with XRE-reporter vector, cells were co-transfected with Nano-luciferase reporter gene construct (Nano-Luc) containing constitutively active promoter as internal control. Kynurenine (an endogenous AhR agonist) was used to stimulate cells to test antagonistic properties of the compounds. The half-maximal inhibitory concentration (IC50) or half-maximal effective concentration (EC50) value was calculated using nonlinear regression (four parameters) with Prism8.0 software (GraphPad).
In Vitro Assay 2: Antagonism in Mouse Cell Line
Hepa1c1c7 (murine liver cancer cell line) cells co-transfected with XRE-Luc and Nano-Luc plasmids were plated in complete medium and incubated overnight at 37° C. in a CO2 incubator. Following incubation, cells were treated with AhR activating ligands such as kynurenic acid, kynurenine(#) with or without test compounds for 6 hours. Firefly luciferase and Nano-luciferase activity was measured using Nano-glo Luciferase kit (Promega) and relative luciferase activity (Firefly/Nano-Luc) was used to calculate IC50 values. The relative luciferase activity was further normalized with agonists alone group as the maximum control and the vehicle group as the minimum control. (IC50 Values are grouped as A, B, C and D, whereby A: IC50<0.01 μM; B: 0.01<IC50<0.1 μM; C: 0.1<IC50<1.0 μM; D: IC50>1.0 μM)

[4] = target: T1, AhR; test: In vitro assay 3: XRE-luciferase reporter assay, agonism in human cell line (HepG2); conditions: HepG2 XRE-Luc, tryptophan free medium, test compound alone, 6 hours
Source text: as §1, §2
In Vitro Assay 3: Agonism in Human Cell Line
HepG2 (human hepatoma cell line) cells co-transfected with XRE-Luc and Nano-Luc plasmids were plated in tryptophan free medium containing 1% of dialyzed fetal bovine serum and incubated overnight at 37° C. in a CO2 incubator. After 24 hours, cells were treated for 6 hours with test compounds or not. Firefly luciferase and Nano-luciferase activity was measured using Nano-glo Luciferase kit (Promega) and relative luciferase activity (Firefly/Nano-Luc) was used to calculate EC50 values. As a positive control, cells were incubated with TCDD. (EC50 Values are grouped as A, B, C and D, whereby A: EC50<0.1 μM; B: 0.1<EC50<1.0 μM; C: 1.0<EC50<10 μM; D: EC50>10 μM)

[5] = cells treated with kynurenine 200 μM (no *)
[6] = read-out: CYP1A1 (% Inhibition)
[7] = read-out: CYP1B1 (% Inhibition)
[8] = AhR activating ligand such as kynurenic acid (no #)
[9] = read-out: Assay 3: AhR-Luc Human Agonism (EC50)
[10] = read-out: Assay 3: AhR-Luc Human Agonism (EC50, nM), class in brackets
[11] = cells treated with kynurenine 50 μM (*)
[12] = cells treated with kynurenine (#)

| SMILES | IC50 [1, 5] | inhibition at 0.123 µM [2, 6] | inhibition at 0.123 µM [2, 7] | IC50 [3, 8] | EC50 [4, 9] | EC50 [4, 10] | IC50 [1, 11] | IC50 [3, 12] |
| --- | --- | --- | --- | --- | --- | --- | --- | --- |
| O=c1c2cc(-c3ccc(C(F)(F)F)cc3)nc(-c3cccnc3)c2ncn1[C@@H]1CCCC[C@@H]1O [Example 16, 3-((1R,2S)-2-hydroxycyclohexyl)-8-(pyridin-3-yl)-6-(4-(trifluoromethyl)phenyl)pyrido[3,4-d]pyrimidin-4(3H)-one] | < 10 nM | 99.6% | 100% | – | – | – | – | – |
| Cn1cc(-c2nc(-c3ccc(C(F)(F)F)cc3)cc3c(=O)n([C@H]4CCCC[C@H]4O)cnc23)cn1 [Example 17, 3-((1S,2R)-2-hydroxycyclohexyl)-8-(1-methyl-1H-pyrazol-4-yl)-6-(4-(trifluoromethyl)phenyl)pyrido[3,4-d]pyrimidin-4(3H)-one] | > 1000 nM | 90.7% | 99.1% | – | – | – | – | – |
| O=c1c2cc(-c3ccc(Cl)cc3)nc(-c3cccnc3)c2ncn1[C@H]1CC[C@H](O)CC1 [Example 56, 6-(4-chlorophenyl)-3-((1r,4r)-4-hydroxycyclohexyl)-8-(pyridin-3-yl)pyrido[3,4-d]pyrimidin-4(3H)-one] | < 10 nM | 101% | – | < 10 nM | > 30000 nM | > 10000 nM | – | – |
| CC(C)(O)Cn1cnc2c(-c3cccnc3)nc(-c3ccc(Cl)cc3)cc2c1=O [Example 38, 6-(4-chlorophenyl)-3-(2-hydroxy-2-methylpropyl)-8-(pyridin-3-yl)pyrido[3,4-d]pyrimidin-4(3H)-one] | < 10 nM | 100% | – | – | 1670 nM | – | – | – |
| CCC(CO)n1cnc2c(-c3cccnc3)nc(-c3ccc(Cl)cc3)cc2c1=O (stereo not drawn) [Example 51, 6-(4-chlorophenyl)-3-(1-hydroxybutan-2-yl)-8-(pyridin-3-yl)pyrido[3,4-d]pyrimidin-4(3H)-one] | – | 99.2% | – | – | 701 nM | – | < 10 nM | – |
| O=c1c2cc(-c3ccc(C(F)(F)F)cc3)nc(-c3cccnc3)c2ncn1CC(O)CO (stereo not drawn) [Example 66, 3-(2,3-dihydroxypropyl)-8-(pyridin-3-yl)-6-(4-(trifluoromethyl)phenyl)pyrido[3,4-d]pyrimidin-4(3H)-one] | < 10 nM | 100% | – | – | – | – | – | 10 to 100 nM |
| CC(=O)NCC(C)n1cnc2c(-c3cccnc3)nc(-c3ccc(Cl)cc3)cc2c1=O (stereo not drawn) [Example 88, N-(2-(6-(4-chlorophenyl)-4-oxo-8-(pyridin-3-yl)pyrido[3,4-d]pyrimidin-3(4H)-yl)propyl)acetamide] | < 10 nM | 99.2% | – | – | > 30000 nM | > 10000 nM | – | 10 to 100 nM |
| CC(=O)N1CCC(n2cnc3c(-c4cccnc4)nc(-c4ccc(Cl)cc4)cc3c2=O)CC1 [Example 96, 3-(1-acetylpiperidin-4-yl)-6-(4-chlorophenyl)-8-(pyridin-3-yl)pyrido[3,4-d]pyrimidin-4(3H)-one] | < 10 nM | 99.9% | – | < 10 nM | > 30000 nM | > 10000 nM | – | – |
| CC(CO)n1cnc2c(-c3cccnc3)nc(-c3ccc(N4CCOCC4)cc3)cc2c1=O (stereo not drawn) [Example 75, 3-(1-hydroxypropan-2-yl)-6-(4-morpholinophenyl)-8-(pyridin-3-yl)pyrido[3,4-d]pyrimidin-4(3H)-one] | < 10 nM | 101% | – | – | > 30000 nM | > 10000 nM | – | 10 to 100 nM |
| CC(CO)n1cnc2c(-c3cnn(C)c3)nc(-c3ccc(C(F)(F)F)cc3)cc2c1=O (stereo not drawn) [Example 45, 3-(1-hydroxypropan-2-yl)-8-(1-methyl-1H-pyrazol-4-yl)-6-(4-(trifluoromethyl)phenyl)pyrido[3,4-d]pyrimidin-4(3H)-one] | – | 99.6% | 100% | – | 0.0428 nM | – | < 10 nM | – |
